According to patent publication US20260250312A1, “ANTIBACTERIAL COMPOUNDS ELIMINATING DORMANT BACTERIAL CELLS” (UNIVERSITÉ D'AIX-MARSEILLE, priority 2022, published 2026):
Converted amounts (≈) assume the structure as drawn. “And” between values parts separate entries of the source, which are not always exact repeats. Equal values may be shown once. Read-outs that look alike come from different tables or passages of the source. Marks after values point to notes of the source that are not given here.

Experiments:
[1] = tested on: Escherichia coli (ATCC28922); test: Microdilution MIC assay (CLSI-based), E. coli; format: cell-based; conditions: 20 hours incubation at 35-37° C., MHB; for MIC: Escherichia coli, ATCC28922, 20 h, read-out: Minimum inhibitory concentration E. coli ATCC28922
In short: (§1)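 Broth microdilution per modified CLSI guidelines in Mueller Hinton broth, 200 μL, inoculum ca. 5×10^5 CFU/mL; compounds tested as salts, twofold dilutions from 0.2 mg/mL, in triplicate. MIC determined from OD at 620 nm after incubation.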

[2] = tested on: Staphylococcus aureus (ATCC25923); test: Microdilution MIC assay (CLSI-based), S. aureus; format: cell-based; conditions: 20 hours incubation at 35-37° C., MHB; for MIC: Staphylococcus aureus, ATCC25923, 20 h, read-out: Minimum inhibitory concentration S. aureus ATCC25923
In short: as §1

[3] = tested on: E. coli non-persister cells; test: Anti-persister activity test, non-persister cells; format: cell-based, Escherichia coli; conditions: for viability at 125 µM: read-out: Non-persister cell survival rate 96 h, concentration used 125 μM, 4 hours treatment; for viability at 62.5 µM: read-out: Non-persister cell survival rate 96 h, concentration used 62.5 μM, 4 hours treatment
Experimental: (§2) Anti-persister activity test: Escherichia coli (E. coli) persister cells were generated and isolated as described by MARQUES, C. N. H. et al. (Applied and Environmental Microbiology 2014, Vol. 80, No. 22, pp. 6976-6991). E. coli persister cells were compared to E. coli non-persister cells. 1 mL persister or non-persister bacteria culture was added in a 1.5 mL microtube with each of the compounds to be tested or ciprofloxacin as a […], and incubated at 37° C. with 160 rpm shaking for 4 hours. After 4 hours treatment with the compounds, the microtubes were centrifuged at 3,500g for 5 minutes and the pellets were resuspended in 1 mL of fresh drug free RM broth (10 g/L M9 salt, 2% casamino acids, 1 mM MgCl2, 1% glycerol). Resuspended bacteria were then plated over LB agar plates and incubated at 37° C. Bacterial colonies were enumerated after 24, 48 and 96 hours to estimate the survival rate.

[4] = tested on: Pseudomonas aeruginosa (ATCC27853); test: Microdilution MIC assay (CLSI-based), P. aeruginosa; format: cell-based; conditions: 20 hours incubation at 35-37° C., MHB; for MIC: Pseudomonas aeruginosa, ATCC27853, 20 h, read-out: Minimum inhibitory concentration P. aeruginosa ATCC27853
In short: as §1

[5] = tested on: Escherichia coli (E. coli) persister cells; test: Anti-persister activity test, persister cells; format: cell-based; conditions: for anti-persister activity (in words): E. coli persister cells, Table 8 conditions; for viability at 125 µM: read-out: Persister cell survival rate 96 h, concentration used 125 μM, 4 hours treatment; for viability at 62.5 µM: read-out: Persister cell survival rate 96 h, concentration used 62.5 μM, 4 hours treatment
Experimental: as §2

CHO-K1 cells = test: WST1 cytotoxicity test; format: cell-based, Chinese hamster
In short: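 CHO-K1 cells pre-cultured 24 h, then exposed 24 h at 37 °C to increasing compound concentrations. Viability read as WST-1 formazan absorbance at 450 nm after 20 min; dose-response fitted by nonlinear regression.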

[6] = tested on: Enterococcus faecalis (ATCC29212); test: Microdilution MIC assay (CLSI-based), E. faecalis; format: cell-based; conditions: 20 hours incubation at 35-37° C., MHB; for MIC: Enterococcus faecalis, ATCC29212, 20 h, read-out: Minimum inhibitory concentration E. faecalis ATCC29212
In short: as §1

[7] = Cricetulus griseus, CHO-K1, 24 h, WST1, 24 hours at 37° C., read-out: IC50 CHO
[8] = Cricetulus griseus, CHO-K1, WST1, as printed in Table 8, read-out: Toxicity IC50 CHO
[9] = WST1, 24 hours at 37° C., read-out: IC50 CHO
[10] = WST1, Table 8, read-out: Toxicity IC50 CHO
[11] = concentration used 125 μM, 4 hours treatment

Compound	MIC [1]	MIC [2]	viability at 125 µM ([3]; Escherichia coli, 4 h)	MIC [4]	anti-persister activity (in words) [5]	viability at 125 µM ([5]; Escherichia coli, 4 h)	toxicity results (in words) (CHO-K1 cells)	IC50 (CHO-K1 cells; [7])	IC50 (CHO-K1 cells; [8])	MIC [6]	further results
COC(=O)[C@H](Cc1ccc(O)cc1)NC(=O)CC[C@@H](C)[C@H]1CCC2C3C(CC[C@@]21C)[C@@]1(C)CC[C@H](NCCCNCCNCCCN)C[C@H]1C[C@H]3O (stereo partly drawn) [Compound S042, methyl ((4R)-4-((3S,5S,7R,10S,13R,17R)-3-((3-((2-((3-aminopropyl)amino)ethyl)amino)propyl)amino)-7-hydroxy-10,13-dimethylhexadecahydro-1H-cyclopenta[a]phenanthren-17-yl)pentanoyl)-L-tyrosinate]	12.5 µM and 8 µg/mL	6.25 µM and 4 µg/mL	0%	25 µM and 16 µg/mL	not as good on persister cells	0.1%	good toxicity results	51.4 µM and 37.3 µg/mL	51.4 µM	25 µM and 16 µg/mL	activity on non-persister cells (in words) ([3]; E. coli non-persister cells, Table 8 conditions): good activity on non-persister cells
CC[C@@H](C)[C@H](NC(=O)CC[C@@H](C)[C@H]1CC[C@H]2[C@@H]3[C@H](O)C[C@@H]4C[C@@H](NCCCNCCCCNCCCN)CC[C@]4(C)[C@H]3CC[C@]12C)C(=O)OC [Compound S044, methyl (2S,3R)-2-((4R)-4-((3S,5S,7R,10S,13R,17R)-3-((3-((4-((3-aminopropyl)amino)butyl)amino)propyl)amino)-7-hydroxy-10,13-dimethylhexadecahydro-1H-cyclopenta[a]phenanthren-17-yl)pentanamido)-3-methylpentanoate]	6.25 µM and 4 µg/mL	6.25 µM and 4 µg/mL	–	12.5 µM and 8 µg/mL	both anti-persister and anti-bacterial activities	–	good toxicity results	52.4 µM and 36.9 µg/mL	52.4 µM	6.25 µM and 4 µg/mL	viability at 62.5 µM ([3]; Escherichia coli, 4 h): 0%; viability at 62.5 µM ([5]; Escherichia coli, 4 h): 0%
COC(=O)[C@H]1CCCN1C(=O)CC[C@@H](C)[C@H]1CCC2C3C(CC[C@@]21C)[C@@]1(C)CC[C@H](NCCCNCCNCCCN)C[C@H]1C[C@H]3O (stereo partly drawn) [Compound S046, methyl ((4R)-4-((3S,5S,7R,10S,13R,17R)-3-((3-((2-((3-aminopropyl)amino)ethyl)amino)propyl)amino)-7-hydroxy-10,13-dimethylhexadecahydro-1H-cyclopenta[a]phenanthren-17-yl)pentanoyl)-D-prolinate]	12.5 µM and 8 µg/mL	12.5 µM and 8 µg/mL	0.3%	12.5 µM and 8 µg/mL	very potent anti-persister activity	0%	–	9.53 µM and 6.29 µg/mL	9.53 µM	6.25 µM and 4 µg/mL	–
COC(=O)[C@H](NC(=O)CC[C@@H](C)[C@H]1CCC2C3C(CC[C@@]21C)[C@@]1(C)CC[C@H](NCCCNCCCN)C[C@H]1C[C@H]3O)C(C)C (stereo partly drawn) [Compound S047, methyl ((4R)-4-((3S,5S,7R,10S,13R,17R)-3-((3-((3-aminopropyl)amino)propyl)amino)-7-hydroxy-10,13-dimethylhexadecahydro-1H-cyclopenta[a]phenanthren-17-yl)pentanoyl)-D-valinate]	–	6.25 µM and 4 µg/mL	0%	–	both anti-persister and anti-bacterial activities	0%	–	–	–	–	Minimum inhibitory concentration E. coli ATCC28922 [1]: 12.5* μM and 8* μg/mL; Minimum inhibitory concentration P. aeruginosa ATCC27853 [4]: 12.5* μM and 8* μg/mL; IC50 CHO (CHO-K1 cells; WST1, 24 hours at 37° C.): 57.61 µg/mL (≈ 93.1 µM); IC50 (CHO-K1 cells; [9]): 93.1 µM; IC50 (CHO-K1 cells; [10]): 93.1 µM; Minimum inhibitory concentration E. faecalis ATCC29212 [6]: 12.5* μM and 8* μg/mL
COC(=O)[C@H](NC(=O)CC[C@@H](C)[C@H]1CCC2C3C(CC[C@@]21C)[C@@]1(C)CC[C@H](NCCCNCCCN)C[C@H]1C[C@H]3O)C(C)C (stereo partly drawn) [Compound S048, methyl ((4R)-4-((3S,5S,7R,10S,13R,17R)-3-((3-((3-aminopropyl)amino)propyl)amino)-7-hydroxy-10,13-dimethylhexadecahydro-1H-cyclopenta[a]phenanthren-17-yl)pentanoyl)-D-valinate]	–	–	–	–	both anti-persister and anti-bacterial activities	–	–	–	–	–	Minimum inhibitory concentration E. coli ATCC28922 [1]: 6.25* μM and 4* μg/mL; Minimum inhibitory concentration S. aureus ATCC25923 [2]: 6.25* μM and 4* μg/mL; Non-persister cell survival rate 96 h [3, 11]: 0.0%; Minimum inhibitory concentration P. aeruginosa ATCC27853 [4]: 12.5* μM and 8* μg/mL; Persister cell survival rate 96 h [5, 11]: 0.0%; IC50 CHO (CHO-K1 cells; WST1, 24 hours at 37° C.): 60.09 µg/mL (≈ 97.1 µM); IC50 (CHO-K1 cells; [9]): 97.1 µM; IC50 (CHO-K1 cells; [10]): 97.1 µM; Minimum inhibitory concentration E. faecalis ATCC29212 [6]: 25* μM and 16* μg/mL
COC(=O)[C@H](NC(=O)CC[C@@H](C)[C@H]1CCC2C3CC[C@@H]4C[C@@H](NCCCNCCCCNCCCN)CC[C@]4(C)C3C[C@H](O)[C@@]21C)C(C)C (stereo partly drawn) [Compound S052, methyl ((4R)-4-((3S,5R,10S,12S,13R,17R)-3-((3-((4-((3-aminopropyl)amino)butyl)amino)propyl)amino)-12-hydroxy-10,13-dimethylhexadecahydro-1H-cyclopenta[a]phenanthren-17-yl)pentanoyl)-D-valinate]	12.5 µM and 8 µg/mL	3.12 µM and 2 µg/mL	–	12.5 µM and 8 µg/mL	both anti-persister and anti-bacterial activities	–	good toxicity results	50 µM and 34 µg/mL	50 µM	25 µM and 16 µg/mL	viability at 62.5 µM ([3]; Escherichia coli, 4 h): 0%; viability at 62.5 µM ([5]; Escherichia coli, 4 h): 0%
COC(=O)[C@H](NC(=O)CC[C@@H](C)[C@H]1CCC2C3C(C[C@H](O)[C@@]21C)[C@@]1(C)CC[C@H](NCCCN(CCCN)CCCN)C[C@H]1C[C@H]3O)C(C)C (stereo partly drawn) [Compound S060, methyl ((4R)-4-((3S,5S,7R,10S,12S,13R,17R)-3-((3-(bis(3-aminopropyl)amino)propyl)amino)-7,12-dihydroxy-10,13-dimethylhexadecahydro-1H-cyclopenta[a]phenanthren-17-yl)pentanoyl)-D-valinate]	160 µM and 128 µg/mL	40 µM and 32 µg/mL	–	160 µM and 128 µg/mL	very potent anti-persister activity	–	good toxicity results	186 µM and 129 µg/mL	186 µM	160 µM and 128 µg/mL	viability at 250 µM ([3]; Escherichia coli, 4 h, read-out: Non-persister cell survival rate 96 h, concentration used 250 μM, 4 hours treatment): 3.8%; viability at 250 µM ([5]; Escherichia coli, 4 h, read-out: Persister cell survival rate 96 h, concentration used 250 μM, 4 hours treatment): 2%
